According to patent US20030022811A1, “Favorable modulation of health-related quality of life and health-related quality-adjusted time-to-progression of disease in patients with prostate cancer” (priority 2001, published 2003):
Entries after “also recorded” stand apart in the source; their conditions may differ.

Tests used:
Type in all cases: in vivo, human
[1] = test system: patients having hormone refractory prostate cancer (HRPCa); experiment: Health-related quality-adjusted time-to-progression (QATTP), Kaplan-Meier product limit analysis; conditions: for health-related QATTP, difference between the atrasentan treatment groups: 10 mg vs 2.5 mg
Description: The health-related QATTP model used for the practice of this invention expresses progression-free time as an equally preferable amount of time spent in full health. This is achieved by using patient-reported health-related QoL, as measured for the duration of observation or progression-free interval, to weight progression-free time. […] Patients received treatment with either 10 mg (N=89) or 2.5 mg (N=95) of atrasentan or placebo (N=104) until experiencing a clinical event indicative of disease progression as defined by palliative opiate treatment of new bone or visceral pain, palliative radiation treatment of new bone pain, or new tumor growth symptoms requiring intervention or treatment with chemotherapy. Patient-reported health-related QoL data were collected with the EORTC QLQ-30 and the FACT-G and FACT-P, both of which were administered at baseline, at six week intervals and at the patient's final visit. A patient's transformed domain score and total score from both the EORTC QLQ-30 and FACT were used to weight the time-to-progression outcome data. Transformed domain scores ranged between 0 and 1, so the reported health-related QATTP outcome was never larger than actual time to progression. Possible scores for the fourteen EORTC domains each range between […]. For six domains (physical, emotional, role, social, and cognitive functioning and global score), a higher score means a better health-related QoL. These six scores were transformed to weights by dividing the patient-reported scores by 100. For the remaining eight EORTC domains, a higher score indicates worse symptoms (a worse health-related QoL). These domains are pain, fatigue, nausea and vomiting, appetite loss, […], sleep disturbance, diarrhea, and constipation. These eight scores were converted to weight adjustments by dividing them by 100 and subtracting the result from the integer 1 to provide consistent directionality of response. […] Each patient's health-related QATTP was computed as the […] of the health-related QoL weights and the duration for which that patient experienced that health-related QoL. If a patient experienced a clinical event between two health-related QoL assessments, the set of health-related QoL domain scores immediately prior to the event were carried forward to the time of the clinical event. The mean and median health-related QATTP outcomes were then estimated using Kaplan-Meier product limit methodology (Journal of the American Statistical Association, vol.53, 1958, pp 457-481). The area under a Kaplan-Meier survival curve conveys an estimated mean health-related QATTP. This analysis was applied to both intent-to-treat (ITT) and per protocol population data. All health-related QATTP comparisons between atrasentan and placebo treatment groups were based on log-rang test statistical significance at an α of 0.05. Results of the Kaplan-Meier product limit survival method analysis are reported in Table 2 (Intent to Treat) and Table 3 (Per Protocol Population). Mean and median health-related QATTP are shown by treatment arm. Log-rank tests comparing the differences between treatment groups are also reported.

[2] = test system: patients having hormone refractory prostate cancer (HRPCa); experiment: Area under the Curve (AUC) analysis of health-related QoL domain scores, one year follow-up
Excerpt: The Kaplan-Meier product limit method can provide biased results if study data are obtained under certain conditions such as staggered entry of subjects into the study and/or incomplete follow-up (Biometrics. 1989; 5:781-795). Thus, a second study was implemented to verify that the conclusions derived from the Kaplan-Meier would remain robust to the length of follow-up. The assumption was that all patients were followed for one year. Patients who discontinued from the study prior to one year of observation had their last observation for all health-related QoL domains carried forward through the remainder of the year. Similarly, patients who had not completed one year of observation had their health-related QoL data carried forward through one year. If the patient experienced a clinical event within the one year period, the last observation was not carried forward. The Area under the Curve (AUC) value for each domain was computed by multiplying the health-related QoL domain score by the respective duration of that score. Finally, AUC values were aggregated across all subjects within each respective treatment group (atrasentan (10 mg), atrasentan (2.5 mg), and placebo). Aggregated AUC values for each domain were compared for differences between treatment groups using a t-test.

[3] = test system: patients having hormone refractory prostate cancer (HRPCa); experiment: Time to disease progression, PSA progression and markers of bone metabolism
Description: Patients received treatment with either 10 mg (N=89) or 2.5 mg (N=95) of atrasentan or placebo (N=104) until experiencing a clinical event indicative of disease progression as defined by palliative opiate treatment of new bone or visceral pain, palliative radiation treatment of new bone pain, or new tumor growth symptoms requiring intervention or treatment with chemotherapy.

[4] = At. 10 mg, adjusted by FACT Functional Well Being, Intent to Treat
[5] = At. 10 mg, adjusted by FACT Physical Well Being, Per Protocol
[6] = 10 mg and 2.5 mg, Per Protocol subjects

SMILES: CCCCN(CCCC)C(=O)CN1C[C@H](c2ccc3c(c2)OCO3)[C@@H](C(=O)O)[C@@H]1c1ccc(OC)cc1 [atrasentan, (2R,3R,4S)-2-(4-methoxyphenyl)-4-(1,3-benzodioxol-5-yl)-1-(N,N-di(n-butyl)aminocarbonylmethyl)pyrrolidine-3-carboxylic]
- mean health-related QATTP vs placebo ([1]; 2.5 mg, per protocol): longer
- log rank test of health-related QATTP vs placebo ([1]; 2.5 mg, per protocol, all QoL domains except dyspnea and functional well-being): statistically significant
- mean and median health-related QATTP, atrasentan treatment groups vs placebo ([1]; 10 mg and 2.5 mg, intent-to-treat population): no statistically significant differences
- health-related QATTP, difference between the atrasentan treatment groups ([1]; intent-to-treat population): no statistically significant differences
- health-related QATTP, difference between the atrasentan treatment groups ([1]; per protocol, any QoL domain): no statistical differences
- health-related QATTP trend vs placebo ([1]; 10 mg, per protocol, dyspnea, global score, emotional well-being, social well-being, p<0.10): trend favored
- weighted health-related QATTP vs placebo group ([1]; 10 mg, per protocol, p<0.05, all QoL domains except dyspnea, global score, emotional, social and functional well-being): significantly longer
- Health-Related QATTP Mean ([1]; At. 2.5 mg, adjusted by EORTC Cognitive Functioning, Intent to Treat): 180 days
- Health-Related QATTP Mean ([1]; At. 2.5 mg, adjusted by EORTC Cognitive Functioning, Per Protocol): 190 days
- Health-Related QATTP Mean ([1]; At. 2.5 mg, adjusted by EORTC Constipation, Intent to Treat): 180 days
- Health-Related QATTP Mean ([1]; At. 2.5 mg, adjusted by EORTC Constipation, Per Protocol): 190 days
- Health-Related QATTP Mean ([1]; At. 2.5 mg, adjusted by EORTC Dyspnea, Per Protocol): 180 days
- Health-Related QATTP Mean ([1]; At. 2.5 mg, adjusted by FACT Emotional Well Being, Intent to Treat): 180 days
- Health-Related QATTP Mean ([1]; At. 2.5 mg, adjusted by FACT Social/Family Well Being, Intent to Treat): 160 days
- Health-Related QATTP Mean ([1]; At. 2.5 mg, adjusted by FACT-G, Per Protocol): 180 days
- Health-Related QATTP Mean ([1]; At. 2.5 mg, adjusted by FACT-P, Per Protocol): 160 days
- Health-Related QATTP Mean ([1]; At. 10 mg, adjusted by EORTC Role Functioning, Intent to Treat): 180 days
- Health-Related QATTP Mean ([1]; At. 10 mg, adjusted by EORTC Social Functioning, Intent to Treat): 190 days
- Health-Related QATTP Mean [1, 4]: 140 days
- Health-Related QATTP Median [1, 4]: 98 days
- Health-Related QATTP Mean [1, 5]: 190 days
- Health-Related QATTP Median [1, 5]: 130 days
- Health-Related QATTP Mean ([1]; At. 10 mg, adjusted by FACT-G, Intent to Treat): 160 days
- Health-Related QATTP Median ([1]; At. 10 mg, adjusted by FACT-G, Per Protocol): 130 days
- health-related QATTP compared to placebo ([1]; both 10 mg and 2.5 mg arms, per protocol analysis): improved; also recorded: longer
- AUC results vs placebo group ([2]; 2.5 mg, all domains except dyspnea, social/family, functional well-being and FACT-P): significantly improved
- AUC of health-related QoL domain scores, atrasentan treatment vs placebo ([2]; Intent to Treat population): no statistical differences
- AUC of health-related QoL domain scores, 10 mg vs 2.5 mg groups ([2]; per-protocol population): not statistically differentiable
- AUC of health-related QoL domain scores, atrasentan treatment groups vs placebo ([2]; per-protocol population, every QoL domain score): strong trends in favor
- AUC for health-related QoL domain scores vs placebo ([2]; physical functioning, social functioning and pain domains): significantly (p<0.05) longer
- time to disease progression compared to placebo ([3]; 10 mg and 2.5 mg, Per Protocol analysis): delayed
- markers of bone metabolism [3, 6]: attenuated increases
- time to prostate-specific antigen (PSA) progression [3, 6]: delayed
- time to disease or PSA progression across treatment groups ([3]; intent-to-treat population): no statistically significant differences
